Laboratory results published in patent US5679805A, “Photochromic spironaphthopyran compounds” (Vision-Ease Lens, Inc., priority 1995, dated 1997).

Experiments:
[1] = fade time T1/2 of chloroform-dissolved photochromic compounds after isolation from ultraviolet light; format: physicochemical; set-up: key to T1/2 (fade time), footnoted reading: *: Fades too fast to obtain readings; conditions: room temperature (72° F.); for T1/2 (fade time): absorbance of activated form to one half of maximum
Procedure: Additionally, a purchased sample of 3,3-diphenyl-naphtho-3H[2,1-b]pyran, identified as Comparative Example 2, was dissolved in a separate container of chloroform.
Each of the chloroform-dissolved photochromic compounds of Examples 1-3 and Comparative Examples 1-2 were then irradiated with ultraviolet light with a maximum wavelength of 350 nanometers, and the maximum absorption wavelength λmax was determined for each of the chloroform-dissolved photochromic compound. The fade time, T1/2 was then determined for each of the irradiated compounds. The fade time for a particular chloroform dissolved photochromic compound is defined as the time interval, at room temperature (72° F.), for the absorbance of the activated form of the chloroform-dissolved photochromic compound to decrease to one half of the maximum absorbance, after the photochromic compound is isolated from the activating source of ultraviolet light. The maximum absorption wavelength and fade time determined for each of the irradiated photochromic compounds of Examples 1-3 and Comparative Examples 1-2 are presented in Table 1: […]

[2] = cited from earlier work
[3] = maximum absorption wavelength of chloroform-dissolved photochromic compounds irradiated with ultraviolet light; format: physicochemical; conditions: for maximum absorption wavelength λmax: Chloroform, maximum wavelength of 350 nanometers; for maximum wavelength of activation vs Comparative Example 1: compared with Comparative Example 1, 3,3-diphenyl-8-methoxy-3H-naphtho[2,1-b]pyran
[4] = color on activation by ultraviolet light; format: physicochemical
[5] = irradiated with ultraviolet light

SMILES	T1/2 (fade time) [1]	photochromic at room temperature [2]	maximum absorption wavelength λmax [3, 5]	T1/2 (fade time), footnoted reading [1]	maximum wavelength of activation vs Comparative Example 1 [3]	activated maximum wavelength of absorption ([3]; dissolved in chloroform, irradiated with ultraviolet light)	color when activated by ultraviolet light ([4]; activated by ultraviolet light)	color of blend with blue-turning photochromic compounds when activated ([4]; blend with blue-turning photochromic compounds, such as substituted spiroindolino naphthoxazine, ultraviolet radiation)
COc1ccc2c3c(ccc2c1)OC(c1ccccc1)(c1ccccc1)C=C3 [Comparative Example 1, 3,3-diphenyl-8-methoxy-3H-naphtho[2,1-b]pyran, reference compound]	10 s	–	–	–	–	–	–	–
C1=CC(c2ccccc2)(c2ccccc2)Oc2ccc3ccccc3c21 [Comparative Example 2, 3,3-diphenyl-naphtho-3H[2,1b]pyran, reference compound]	13 s	photochromic at room temperature	435	–	–	–	–	–
C1=CC2(Oc3ccc4c5c(ccc4c31)OC1(C=C5)c3ccccc3-c3ccccc31)c1ccccc1-c1ccccc12 [Example 1]	–	–	490	*	longer maximum wavelength of activation	–	–	–
C1=CC2(Oc3ccc4c5c(ccc4c31)OC1(C=C5)c3ccccc3Sc3ccccc31)c1ccccc1Sc1ccccc12 [Example 2]	1.9 s	–	502	–	longer maximum wavelength of activation	about 502 nanometers	deep shade of red	intense shade of gray
